System: hyperalgesic foot withdrawal
Test: Rat Carrageenan-induced Analgesia Test
Type: in vivo, Male Sprague-Dawley rats
Settings: oral, assay performed at 50 mg/kg body weight, 3 hours after carrageenan
Description: Male Sprague-Dawley rats were treated as previously described for the Carrageenan Foot Pad Edema test. Three hours after the injection of the carrageenan, the rats were placed in a special plexiglass container with a transparent floor having a high intensity lamp as a radiant heat source; positionable under the floor. After an initial twenty minute period, thermal stimulation was begun on either the injected foot or on the contralateral uninjected foot. A photoelectric cell turned off the lamp and timer when light was interrupted by paw withdrawal. The time until the rat withdraws its foot was then measured. The withdrawal latency in seconds was determined for the control and drug-treated groups, and percent inhibition of the hyperalgesic foot withdrawal determined.

Compound: COc1ccc(-c2cc(F)c(F)cc2-c2ccc(S(N)(=O)=O)cc2)cc1Cl [Example 20, 4-[2-(3-chloro-4-methoxyphenyl)-4,5-difluorophenyl]benzenesulfonamide]
- ANALGESIA % Inhibition: 22%

Reference: patent US5739166A, “Substituted terphenyl compounds for the treatment of inflammation” (G.D. Searle & Co., priority 1994, dated 1998)
